{"source": "patent US20030207813A1", "about": "“Retroviral protease inhibitor combinations” (priority 1995, published 2003)", "system": "HIV-1 strain 89-959", "test": "Acute infectivity assay in PHA-activated donor lymphocytes, isolate 89-959", "type": "cell-based", "settings": "Human immunodeficiency virus 1, Lymphocyte, Table 3, footnote marks show values of the same experiment, read-out: Virus Isolate (EC50 ng/mL) 89-959", "experimental": "Approximately 3×10^7 cells are activated for 48 hours with about 3-5 μg/ml PHA in RPMI continuing 10% fetal bovine serum and IL-2 (10 U/ml). Quantitated virus stocks are added to the activated lymphocyte suspension at a multiplicity of infection of about 0.001-0.01. The cell-virus suspension is incubated at 37° C. for 2 hours to allow virus absorption. The residual virus inoculum is removed by centrifugation and the cells are resuspended in RPMI containing 10% FBS and 10 U/ml IL-2. These infected cells are added to the test-article diluted in complete tissue culture medium from a stock (10 mg/ml) in DMSO in 96 well microtiter plates to give about 5×10^5 cells per well per 200 μl. Infected, untreated cells and cells treated with DMSO alone (0.1%) or either AZT or DDI were used as controls. The cultures were examined for syncytia formation on days 7 and 11 post-infection or the supernants tested for reverse transcriptase activity or p24 antigen.\nRF represents the HIV-1 strain HIV-LRF and RFR represents a mixture of resistant strains obtained by selection of RF against the compound of Example 1. RFR comprises a mixture of viral strains having protease genotypes of G48V (14/40 clones); G48V, V82A (18/40 clones); G48V, L90S (2/40 clones); G48V, 154T, V82A (1/40 clones); G48M (1/40 clones); G48V, Q61H (1/40 clones); V13I, G48V (1/40 clones); G48V, F53L, V82A (1/40 clones); and G48V, V82A, C95Y (1/40 clones). RFR2 represents a mixture of resistant strains obtained by cloning RFR by three rounds of growth at limiting dilution. RFR2 comprises a mixture of viral strains having protease genotypes of G48V, V82A (13/15 clones); G17E, G48V, V82A (1/15 clones); and G48V, V82A, N37D, N88D (1/15 clones). RFRR represents a mixture of resistant strains obtained by selection of RF against the compounds of Examples 1 and 2 and then cloning by three rounds of growth at limiting dilution. RFRR comprises a mixture of viral strains having protease genotypes of G48V, 154T, L63P, V82A (7/9 clones); G48V, 154T, L63P, V82A, N88S (1/9 clones); and G48V, 154T, L63P, G73M, V82A (1/9 clones). SF162 represents the HIV-1 strain SF-162 and SF162R represents a mixture of resistant strains obtained by selection of SF162 against the compound of Example 1. SF162R comprises a mixture of viral strains having protease genotypes of M461, F53L, L63P, A71V, N88D (2/3 clones); and M46I, F53L, L63P, A71V, N88D, Q92R (1/3 clones). 89-959 represents the HIV-1 strain 89-959 and 89-959R represents a mixture of resistant strains obtained by selection of 89-959 against the compound of Example 2. 89-959R comprises a mixture of viral strains having protease genotypes of N88S (4/5 clones); and D25N, T26A, D30N, D37N, R41K, G73D, R87K, N88S (1/4 clones). NL4 represents the HIV-1 strain HIV-1NL4-3. NL4(G48V) represents a strain having a synthetically generated site-directed mutation in the protease from glycine to valine at amino acid position number 48. NL4(I84V) represents a strain having a synthetically generated site-directed mutation in the protease from isoleucine to valine at amino acid position number 84. NL4(R8Q,M46I) represents a strain having synthetically generated site-directed mutations in the protease from arginine to glutamine at amino acid position number 8 and methionine to isoleucine at amino acid position number 46. NL4(P22-538) represents a mixture of resistant strains obtained by selection of HIV-1NL4-3 against the compound of Example 10 after 22 passages comprising protease genotypes M46I, L63P, A71V, V82F, I84V (4/10); M46I, L63P, V82F, I84V (3/10); and M46I, A71V, V82F, I84V (3/10). NL4(P37-538) represents resistant strains obtained by selection of HIV-1NL4-3 against the compound of Example 10 after 37 passages comprising protease genotype M46I, L63P, A71V, 184A. NL4(538/524) represents resistant strains obtained by selection of NL4(P22-538) against the compound of Example 5 after 24 passages comprising protease genotype M46I, L63P, A71V, 184A. […]"}
{"smiles": "CC(C)CN(C[C@@H](O)[C@H](Cc1ccccc1)NC(=O)[C@H](CC(N)=O)NC(=O)c1ccc2ccccc2n1)C(=O)NC(C)(C)C", "note": "(relative stereo) [Example 1, [1S-[1R*(R*),2S*]]-N^1-[3-[[[(1,1-dimethylethyl)amino]carbonyl])2-methylpropyl)amino]-2-hydroxy-1-(phenylmethyl)propyl]-2-[(2-quinolinylcarbonyl)amino]-butanediamide]", "values": [{"measurement": "EC50", "value": 96, "unit": "ng/mL"}]}
{"smiles": "CC(C)CCN(C[C@@H](O)[C@H](Cc1ccccc1)NC(=O)[C@H](CC(N)=O)NC(=O)c1ccc2ccccc2n1)C(=O)NC(C)(C)C", "note": "(relative stereo) [Example 7, [1S-[1R*(R*),2S*]]-N^1-[3-[[[(1,1-dimethylethyl)amino]carbonyl](3-methylbutyl)amino]-2-hydroxy-1-(phenylmethyl)propyl]-2-[(2-quinolinylcarbonyl)amino]-butanediamide]", "values": [{"measurement": "EC50", "value": 13, "unit": "ng/mL"}]}
{"smiles": "CC(C)(C)NC(=O)[C@@H]1CC2CCCC[C@@H]2CN1C[C@@H](O)[C@H](Cc1ccccc1)NC(=O)[C@H](CC(N)=O)NC(=O)c1ccc2ccccc2n1", "note": "(stereo in doubt) [Example 6, N-tert-Butyl decahydro-2-[2(R)-hydroxy-4-phenyl-3(S)-[[N-(2-quinolylcarbonyl)-L-asparaginyl]amino]butyl]-(4aR,8aS)-isoquinoline-3(S)-carboxamide]", "values": [{"measurement": "EC50", "value": 4, "unit": "ng/mL"}]}
{"smiles": "CNCC(=O)N[C@H](C(=O)N[C@@H](Cc1ccccc1)[C@H](O)CN(CCC(C)C)C(=O)NC(C)(C)C)C(C)(C)C", "note": "[Example 2, (2R,3S)-3-(N-methylaminoacetyl-L-tert-butylglycinyl)amino-1-(N-isoamyl-N-(tert-butylcarbamoyl))amino-4-phenyl-2-butanol]", "values": [{"measurement": "EC50", "value": 100, "unit": "ng/mL"}]}
{"smiles": "CC(C)(C)NC(=O)[C@@H]1CN(Cc2cccnc2)CCN1C[C@@H](O)C[C@@H](Cc1ccccc1)C(=O)N[C@H]1c2ccccc2C[C@H]1O", "note": "[Example 5, N-(2(R)-Hydroxy-1(S)-indanyl)-2(R)-phenylmethyl-4(S)-hydroxy-5-(1-(4-(3-pyridylmethyl)-2(S)-N′-(t-butylcarboxamido)-piperazinyl))-pentaneamide]", "values": [{"measurement": "EC50", "value": 36, "unit": "ng/mL"}]}
{"smiles": "CC(C)CN(C[C@@H](O)[C@H](Cc1ccccc1)NC(=O)[C@H](CC(N)=O)NC(=O)c1ccc2ccccc2n1)S(=O)(=O)NC(C)(C)C", "note": "[Example 8, N-[3-[N^2-[N^1-(1,1-dimethylethyl)aminosulfonyl]-N^2-(2-methylpropyl)amino]-2R-hydroxy-1S-(phenylmethyl)propyl]-2S-[(2-quinolinylcarbonyl)amino]butanediamide]", "values": [{"measurement": "EC50", "value": 12, "unit": "ng/mL"}]}
